# Test results as given in publication PMC6934184, “Selective DNA-PKcs inhibition extends the therapeutic index of localized radiotherapy and chemotherapy” (The Journal of Clinical Investigation, 2019).
# Biological target: T1, ULK1 (Homo sapiens, UniProt O75385)
# T1 construct: purchased Thermo Fisher Scientific (Life Technologies) SelectScreen
# Assay: SelectScreen LanthaScreen
# Format: binding
# Settings: 1 µM
# Summary of the method: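 Percent values come from Thermo SelectScreen profiling of NU5455, combining activity and binding assays. CSF1R was run in Z'LYTE format at Km app ATP, and CAMK1 in Adapta format with ATP listed at 10.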
# T1 sequence (O75385 whole entry): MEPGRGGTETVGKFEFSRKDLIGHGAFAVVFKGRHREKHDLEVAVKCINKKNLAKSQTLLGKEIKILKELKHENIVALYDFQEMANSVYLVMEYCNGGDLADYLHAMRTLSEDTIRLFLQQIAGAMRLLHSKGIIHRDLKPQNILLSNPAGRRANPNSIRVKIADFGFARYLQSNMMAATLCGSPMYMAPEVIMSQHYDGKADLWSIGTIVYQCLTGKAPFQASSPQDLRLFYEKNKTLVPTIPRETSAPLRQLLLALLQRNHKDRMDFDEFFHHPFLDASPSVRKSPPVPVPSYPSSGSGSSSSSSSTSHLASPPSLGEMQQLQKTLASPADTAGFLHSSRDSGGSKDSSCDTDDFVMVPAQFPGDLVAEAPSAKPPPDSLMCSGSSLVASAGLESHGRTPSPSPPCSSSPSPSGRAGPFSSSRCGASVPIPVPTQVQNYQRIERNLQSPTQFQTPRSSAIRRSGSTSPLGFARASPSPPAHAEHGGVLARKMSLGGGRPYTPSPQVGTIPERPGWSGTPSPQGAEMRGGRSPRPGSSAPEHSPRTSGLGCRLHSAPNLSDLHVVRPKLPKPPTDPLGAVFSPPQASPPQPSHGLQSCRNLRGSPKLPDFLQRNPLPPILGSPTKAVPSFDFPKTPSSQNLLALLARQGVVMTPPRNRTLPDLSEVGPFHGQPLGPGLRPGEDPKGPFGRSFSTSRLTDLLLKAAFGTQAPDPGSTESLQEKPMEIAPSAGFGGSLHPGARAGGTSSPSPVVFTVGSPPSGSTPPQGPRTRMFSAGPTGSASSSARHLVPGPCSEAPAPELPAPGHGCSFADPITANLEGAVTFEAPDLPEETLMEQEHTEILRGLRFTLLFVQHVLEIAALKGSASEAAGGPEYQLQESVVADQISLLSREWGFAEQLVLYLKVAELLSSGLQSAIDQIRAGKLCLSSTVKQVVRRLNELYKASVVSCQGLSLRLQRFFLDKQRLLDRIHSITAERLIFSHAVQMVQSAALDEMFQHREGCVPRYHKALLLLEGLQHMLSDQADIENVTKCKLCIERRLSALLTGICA
structure (smiles),measurement,value
CN(C(=O)CN1CCOCC1)c1ccc2sc3c(-c4cccc5c(=O)cc(N6CC7CCC(C6)O7)oc45)cccc3c2c1 [NU5455],% displacement,1.8%
